Measurements as given in patent US7371749B2, “Benzothiazole derivatives” (Hoffmann-La Roche Inc., priority 2004, dated 2008).

Assays:
[1] = molecular target: T1, human adenosine A2A receptor (Homo sapiens, UniProt P29274); assay: [3H]-SCH-58261 binding assay on human adenosine A2A receptor expressed in CHO cell membranes (SPA); settings: displacement of [3H]-SCH-58261 (1 nM); recombinant receptor in CHO membranes; Ki by Cheng-Prussoff equation; read-out: hA2 (pKi) (converted)
T1 construct: expressed in transfected cells; host or cells: CHO cells, semliki forest virus expression system; membrane preparation
T1 sequence (P29274 whole entry): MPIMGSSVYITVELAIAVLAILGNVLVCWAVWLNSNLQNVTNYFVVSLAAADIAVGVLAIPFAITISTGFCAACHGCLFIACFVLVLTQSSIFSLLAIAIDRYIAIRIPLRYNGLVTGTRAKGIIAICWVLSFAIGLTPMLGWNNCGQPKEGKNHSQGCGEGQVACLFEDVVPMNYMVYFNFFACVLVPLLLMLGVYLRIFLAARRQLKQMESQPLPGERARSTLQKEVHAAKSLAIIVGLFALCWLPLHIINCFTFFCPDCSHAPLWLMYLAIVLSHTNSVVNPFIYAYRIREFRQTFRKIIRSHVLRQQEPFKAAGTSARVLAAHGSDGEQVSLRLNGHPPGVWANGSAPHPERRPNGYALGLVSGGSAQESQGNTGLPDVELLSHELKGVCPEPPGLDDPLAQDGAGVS
Description: Human Adenosine A2A Receptor
The human adenosine A2A receptor was recombinantly expressed in Chinese hamster ovary (CHO) cells using the semliki forest virus expression system. Cells were harvested, washed twice by centrifugation, homogenized and again washed by centrifugation. The final washed membrane pellet was suspended in a Tris (50 mM) buffer containing 120 mM NaCl, 5 mM KCl, 2 mM CaCl2 and 10 mM MgCl2 (pH 7.4) (buffer A). The [^3H]-SCH-58261 (Dionisotti et al., 1997, Br J Pharmacol 121, 353; 1 nM) binding assay was carried out in 96-well plates in the presence of 2.5 μg of membrane protein, 0.5 mg of Ysi-poly-1-lysine SPA beads and 0.1 U adenosine deaminase in a final volume of 200 μl of buffer A. Non-specific binding was defined using xanthine amine congener (XAC; 2 μM). Compounds were tested at 10 concentrations from 10 μM-0.3 nM. All assays were conducted in duplicate and repeated at least two times. Assay plates were incubated for 1 hour at room temperature before centrifugation and then bound ligand determined using a Packard Topcount scintillation counter. IC50 values were calculated using a non-linear curve fitting program and Ki values calculated using the Cheng-Prussoff equation.

COc1ccc(N2CCOCC2)c2sc(NC(=O)c3cnn(CCN(C)C)c3)nc12 [Example 6, 1-(2-Dimethylamino-ethyl)-1H-pyrazole-4-carboxylic acid (4-methoxy-7-morpholin-4-yl-benzothiazol-2-yl)-amide]
Ki [1]: 0.794 nM
melting point: 203 to 205 °C

COCc1ncc(C(=O)Nc2nc3c(OC)ccc(N4CCOCC4)c3s2)n1C [Example 9, 2-Methoxymethyl-3-methyl-3H-imidazole-4-carboxylic acid (4-methoxy-7-morpholin-4-yl-benzothiazol-2-yl)-amide]
Ki [1]: 0.501 nM
melting point: 242 to 245 °C

COc1ccc(N2CCOCC2)c2sc(NC(=O)c3cnn(CCN4CCCC4)c3)nc12 [Example 5, 1-(2-Pyrrolidin-1-yl-ethyl)-1H-pyrazole-4-carboxylic acid (4-methoxy-7-morpholin-4-yl-benzothiazol-2-yl)-amide]
Ki [1]: 0.794 nM
melting point: 190 to 192 °C

COc1ccc(N2CCOCC2)c2sc(NC(=O)c3cnc(CN4CCCC4)n3C)nc12 [Example 4, 3-Methyl-2-pyrrolidin-1-ylmethyl-3H-imidazole-4-carboxylic acid (4-methoxy-7-morpholin-4-yl-benzothiazol-2-yl)-amide]
Ki [1]: 1.58 nM
melting point: 255 °C

COc1ccc(N2CCOCC2)c2sc(NC(=O)c3cnc(CN(C)C)n3C)nc12 [Example 2, 2-Dimethylaminomethyl-3-methyl-3H-imidazole-4-carboxylic acid (4-methoxy-7-morpholin-4-yl-benzothiazol-2-yl)-amide]
Ki [1]: 0.631 nM
melting point: 229 to 231 °C

COc1ccc(N2CCOCC2)c2sc(NC(=O)c3cnn(CCN4CCOCC4)c3)nc12 [Example 7, 1-(2-Morpholin-4-yl-ethyl)-1H-pyrazole-4-carboxylic acid (4-methoxy-7-morpholin-4-yl-benzothiazol-2-yl)-amide]
Ki [1]: 1 nM
melting point: 204 to 207 °C

COCCn1cc(C(=O)Nc2nc3c(OC)ccc(N4CCOCC4)c3s2)cn1 [Example 8, 1-(2-Methoxy-ethyl)-1H-pyrazole-4-carboxylic acid (4-methoxy-7-morpholin-4-yl-benzothiazol-2-yl)-amide]
Ki [1]: 0.398 nM

COc1ccc(N2CCOCC2)c2sc(NC(=O)c3cnc(CN4CCOCC4)n3C)nc12 [Example 3, 3-Methyl-2-morpholin-4-ylmethyl-3H-imidazole-4-carboxylic acid (4-methoxy-7-morpholin-4-yl-benzothiazol-2-yl)-amide]
Ki [1]: 0.631 nM
melting point: 244 to 246 °C

COCCN(C)Cc1ncc(C(=O)Nc2nc3c(OC)ccc(N4CCOCC4)c3s2)n1C [Example 1, 2-{[(2-Methoxy-ethyl)-methyl-amino]-methyl}-3-methyl-3H-imidazole-4-carboxylic acid (4-methoxy-7-morpholin-4-yl-benzothiazol-2-yl)-amide]
Ki [1]: 0.501 nM
melting point: 176 to 178 °C
